According to patent US20230048349A1, “RECIRCULATING AQUACULTURE SYSTEM AND METHODS THEREOF” (THE TEXAS A&M UNIVERSITY SYSTEM, priority 2021, published 2023):
Converted amounts (≈) assume the structure as drawn. Like-named read-outs stand apart in the source and are kept apart here. Marks after values point to notes of the source that are not given here.

Key:
[1] = test system: Aeromonas hydrophila; assay: Growth inhibition test in liquid medium (OD600); type: cell-based; details: A. hydrophila; for IC50: 4-parameter logistic fit
Method: (§1) These compounds were used to assess the antimicrobial efficacy of PHB and chitosan under the best scenario. Various concentrations of PHB intermediates (5-125 mM), COS (0.2-3 mM), or mixtures of 3-HB+COS (i.e., Mixture 1 (4 mM 3-HB+0.1 mM COS), Mixture 2 (12 mM 3-HB+0.3 mM COS), Mixture 3 (24 mM 3-HB+0.6 mM COS), and Mixture 4 (60 mM 3-HB+1.5 mM COS)) were used based on previously in vitro antimicrobial studies using PHB or chitosan. For S. agalactiae and RHA1, tryptic soy broth (TSB) and Reasoner's 2A (R2A) media were used, respectively. The pH of all growth mediums (i.e., LB, TSB, or R2A) was adjusted to 6.0 based on the typical pH value found in aquatic animals' gut and the optimized antimicrobial activity of PHB. The culture tubes were inoculated with 2% v/v of the pre-grown strains (optical density (OD600) of 1.0) and incubated at 30° C. under 150 rpm. The bacterial growth was determined by absorbance at OD600. The growth of tested strains in the absence of PHB or chitosan intermediates were used as controls. The inhibition efficiency (%) was calculated using Eq. (1): […]
(§2) where ODcontrol and ODsample refer to the highest optical densities of the growth curves for the controls and samples, respectively.

[2] = test system: Bacillus megaterium; assay: Growth inhibition test in liquid medium (OD600); type: cell-based; details: B. megaterium; for IC50: 4-parameter logistic fit; for MIC: pH 6.0, 30° C.
Method: as §1, §2

[3] = test system: Escherichia coli; assay: Growth inhibition test in liquid medium (OD600); type: cell-based; details: E. coli; for MIC: pH 6.0, 30° C.
Method: as §1, §2

[4] = test system: Rhodococcus jostii RHA1; assay: Growth inhibition test in liquid medium (OD600); type: cell-based; details: R. jostii RHA1; for IC50: 4-parameter logistic fit; for MIC: pH 6.0, 30° C.
Method: as §1, §2

[5] = test system: Streptococcus agalactiae; assay: Growth inhibition test in liquid medium (OD600); type: cell-based; details: S. agalactide; for MIC: pH 6.0, 30° C.
Method: as §1, §2

[6] = test system: Vibrio campbellii; assay: Growth inhibition test in liquid medium (OD600); type: cell-based
Method: as §1, §2

[7] = test system: V. campbellii and A. hydrophila; assay: Growth inhibition test, ranges stated over two G− pathogens (Example 8); type: cell-based, Vibrio campbellii; Aeromonas hydrophila; details: range over V. campbellii and A. hydrophila
Method: as §1, §2

[8] = test system: V. campbellii and A. hydrophila; assay: Growth inhibition test of SCFAs and MCFAs, ranges over two G− pathogens (Example 15); type: cell-based, Vibrio campbellii; Aeromonas hydrophila; details: range over V. campbellii and A. hydrophila; for MIC: LB pH 6, 5-125 mM tested; for IC50: LB pH 6
Method: (§3) Growth Inhibition Tests: Antipathogenic Properties of SCFAs and MCFAs. Growth inhibition tests to measure optical density (OD600) and calculate % inhibition efficiencies, minimum, and median inhibitory concentrations (MIC and IC50) were conducted as described previously. […] The PHA intermediates (SCFAs and MCFAs) are water-soluble, representing the PHA degradation products in the gastrointestinal tract of aquatic animals, allowing to assess the antipathogenic efficacy of PHA under the best scenario. The culture tubes were incubated at 30° C. under 150 rpm. The growths of tested strains in the absence of PHA intermediates were used as controls.

[9] = test system: S. agalactiae; assay: Growth inhibition test of SCFAs and MCFAs (Example 15); type: cell-based, Streptococcus agalactiae; details: for IC50: S. agalactiae
Method: as §3

[10] = test system: Vibrio-challenged Artemia; assay: Artemia pathogen challenge test (Example 17); type: in vivo, Artemia franciscana; details: after three days; supplement 1 g/L; V. campbellii 10^8 cells/ml
Method: The pathogen challenge tests were designed to determine the effects of individual supplements on the survival of Vibrio-challenged Artemia. The pathogen challenge tests were conducted as described in the starvation tests, except that Artemia cultures (one day old) with each of the abovementioned supplements (1 g/L) were exposed to a lethal dose (10^8 cells/ml) of live V. campbellii as determined previously. In all treatments, 250 mg/L of yeast was added initially as a feed. Unchallenged and Vibrio-challenged Artemia were used as negative and positive controls, respectively. The survival of Artemia was monitored daily for three days.

[11] = Vibrio campbellii, read-out: Inhibition Efficiency (%)

CC(O)CC(=O)O (stereo not drawn) [3-HB, 3-hydroxybutyrate]
Inhibition Efficiency (%) ([1]; 5 mM): 2.7 ± 1.26% | Inhibition Efficiency (%) ([1]; 25 mM): 24.1 ± 2.70% | Inhibition Efficiency (%) ([1]; 50 mM): 31.1 ± 3.59% | Inhibition Efficiency (%) ([1]; 125 mM): 100% | IC50 [1]: 57.7 mM | MIC ([1]; pH 6.0, 30° C.): 133 mM (≈ 13800 µg/mL) | Inhibition Efficiency (%) ([2]; 5 mM): 6.52 ± 3.48% | Inhibition Efficiency (%) ([2]; 25 mM): −1.35 ± 1.04% | Inhibition Efficiency (%) ([2]; 50 mM): 12.9 ± 0.94% | Inhibition Efficiency (%) ([2]; 125 mM): 17.0 ± 14.4% | IC50 [2]: N.I. | MIC [2]: N.I. | Inhibition Efficiency (%) ([3]; 5 mM): 2.68 ± 0.67% | Inhibition Efficiency (%) ([3]; 25 mM): 9.15 ± 3.12% | Inhibition Efficiency (%) ([3]; 50 mM): 24.5 ± 2.23% | Inhibition Efficiency (%) ([3]; 125 mM): 26.5 ± 1.34% | MIC [3]: 510 mM (≈ 53100 µg/mL) | Inhibition Efficiency (%) ([4]; 5 mM): −32.3 ± 2.20% | Inhibition Efficiency (%) ([4]; 25 mM): −87.3 ± 4.00% | Inhibition Efficiency (%) ([4]; 50 mM): −61.7 ± 0.58% | Inhibition Efficiency (%) ([4]; 125 mM): 100% | IC50 [4]: N.I. | MIC [4]: N.I. | Inhibition Efficiency (%) ([5]; 5 mM): 0.75 ± 0.01% | Inhibition Efficiency (%) ([5]; 25 mM): 0.75 ± 0.03% | Inhibition Efficiency (%) ([5]; 50 mM): 0.75 ± 0.01% | Inhibition Efficiency (%) ([5]; 125 mM): 13.8 ± 0.15% | MIC [5]: 945 mM (≈ 98400 µg/mL) | Inhibition Efficiency (%) ([6]; 5 mM, V. campellii): 1.27 ± 1.07% | Inhibition Efficiency (%) ([6]; 25 mM, V. campellii): 14.0 ± 1.78% | Inhibition Efficiency (%) ([6]; 50 mM, V. campellii): 42.4 ± 5.88% | Inhibition Efficiency (%) ([6]; 125 mM, V. campellii): 100% | IC50 ([6]; V. campellii, 4-parameter logistic fit, read-out: IC50): 53 mM | MIC ([6]; V. campellii, pH 6.0, 30° C.): 111.5 mM (≈ 11600 µg/mL) | IC50 [7]: 53 to 58 mM | MIC [7]: 111.5 to 133 mM

CCCCCCCC(=O)O [octanoate]
MIC [8]: < 5 mM | MIC ([9]; stated for all pathogenic growth, incl. S. agalactiae): < 5 mM | survival of Vibrio-challenged Artemia [10]: 80%

chitosan oligosaccharide lactate [COS]
Inhibition Efficiency (%) ([1]; 0.2 mM): 4.81 ± 0.11% | Inhibition Efficiency (%) ([1]; 0.6 mM): −7.30 ± 0.40% | Inhibition Efficiency (%) ([1]; 1.2 mM): 77.6 ± 0.28% | Inhibition Efficiency (%) ([1]; 3 mM): 74.2 ± 0.61% | Inhibition Efficiency (%) ([2]; 0.2 mM): 100% | Inhibition Efficiency (%) ([2]; 0.6 mM): 100% | Inhibition Efficiency (%) ([2]; 1.2 mM): 100% | Inhibition Efficiency (%) ([2]; 3 mM): 100% | MIC [2]: <0.2^c mM | Inhibition Efficiency (%) ([3]; 0.2 mM): 60.6 ± 4.56% | Inhibition Efficiency (%) ([3]; 0.6 mM): 90.6 ± 0.91% | Inhibition Efficiency (%) ([3]; 1.2 mM): 100% | Inhibition Efficiency (%) ([3]; 3 mM): 100% | MIC [3]: 1.88 mM | Inhibition Efficiency (%) ([4]; 0.2 mM): 100% | Inhibition Efficiency (%) ([4]; 0.6 mM): 100% | Inhibition Efficiency (%) ([4]; 1.2 mM): 100% | Inhibition Efficiency (%) ([4]; 3 mM): 100% | MIC [4]: <0.2 mM | Inhibition Efficiency (%) ([5]; 0.6 mM): 95.4 ± 0.01% | Inhibition Efficiency (%) ([5]; 1.2 mM): 100% | Inhibition Efficiency (%) ([5]; 3 mM): 100% | MIC [5]: 1.08 mM | Inhibition Efficiency (%) ([6]; 0.2 mM, V. campellii): 76.5 ± 1.13% | Inhibition Efficiency (%) ([6]; 0.6 mM, V. campellii): 93.0 ± 1.10% | Inhibition Efficiency (%) ([6]; 1.2 mM, V. campellii): 95.0 ± 0.23% | Inhibition Efficiency (%) ([6]; 3 mM, V. campellii): 100% | MIC ([6]; V. campellii, pH 6.0, 30° C.): 2.36 mM

CCCC(=O)O [Butyrate, butyrate]
inhibition at 5000 µM ([1]; Aeromonas hydrophila, 5 mM, read-out: Inhibition Efficiency (%)): 0.8 ± 0.22% | inhibition at 25000 µM ([1]; Aeromonas hydrophila, 25 mM, read-out: Inhibition Efficiency (%)): 12.7 ± 1.8% | inhibition at 50000 µM ([1]; Aeromonas hydrophila, 50 mM, read-out: Inhibition Efficiency (%)): 72.4 ± 5.4% | inhibition at 125000 µM ([1]; Aeromonas hydrophila, 125 mM, read-out: Inhibition Efficiency (%)): 100% | IC50 ([1]; Aeromonas hydrophila): 39.7 mM | inhibition at 5000 µM ([2]; Priestia megaterium, 5 mM, read-out: Inhibition Efficiency (%)): -5.8 ± 1.74% | inhibition at 25000 µM ([2]; Priestia megaterium, 25 mM, read-out: Inhibition Efficiency (%)): 15.5 ± 1.56% | inhibition at 50000 µM ([2]; Priestia megaterium, 50 mM, read-out: Inhibition Efficiency (%)): 100% | inhibition at 125000 µM ([2]; Priestia megaterium, 125 mM, read-out: Inhibition Efficiency (%)): 100% | IC50 ([2]; Priestia megaterium, read-out: IC50): 26.2 mM | MIC ([2]; Priestia megaterium, read-out: MIC): 53 mM (≈ 4670 µg/mL) | inhibition at 5000 µM ([3]; Escherichia coli, 5 mM, read-out: Inhibition Efficiency (%)): 5 ± 0.89% | inhibition at 25000 µM ([3]; Escherichia coli, 25 mM, read-out: Inhibition Efficiency (%)): 10.7 ± 12% | inhibition at 50000 µM ([3]; Escherichia coli, 50 mM, read-out: Inhibition Efficiency (%)): 23 ± 6.24% | inhibition at 125000 µM ([3]; Escherichia coli, 125 mM, read-out: Inhibition Efficiency (%)): 71.1 ± 8.25% | IC50 ([3]; Escherichia coli, 4-parameter logistic fit): 61.2 mM | IC50 [4]: N.I. | MIC [4]: N.I. | inhibition at 5000 µM ([4]; Rhodococcus jostii, 5 mM, read-out: Inhibition Efficiency (%)): -25.2 ± 4.93% | inhibition at 25000 µM ([4]; Rhodococcus jostii, 25 mM, read-out: Inhibition Efficiency (%)): -70.8 ± 2.65% | inhibition at 50000 µM ([4]; Rhodococcus jostii, 50 mM, read-out: Inhibition Efficiency (%)): -92.2 ± 21.6% | inhibition at 125000 µM ([4]; Rhodococcus jostii, 125 mM, read-out: Inhibition Efficiency (%)): 100% | inhibition at 5000 µM ([5]; Streptococcus agalactiae, 5 mM, read-out: Inhibition Efficiency (%)): 0.75 ± 0.01% | inhibition at 25000 µM ([5]; Streptococcus agalactiae, 25 mM, read-out: Inhibition Efficiency (%)): 0.43 ± 0.15% | inhibition at 50000 µM ([5]; Streptococcus agalactiae, 50 mM, read-out: Inhibition Efficiency (%)): 10.2 ± 1.83% | inhibition at 125000 µM ([5]; Streptococcus agalactiae, 125 mM, read-out: Inhibition Efficiency (%)): 100% | IC50 ([5]; Streptococcus agalactiae, 4-parameter logistic fit): 83.4 mM | IC50 ([6]; Vibrio campbellii): 3.82 mM | MIC ([6]; Vibrio campbellii, pH 6): 25.7 mM (≈ 2260 µg/mL) | inhibition at 5000 µM [6, 11]: 9.14 ± 8.9% | inhibition at 25000 µM [6, 11]: 100% | inhibition at 50000 µM [6, 11]: 100% | inhibition at 125000 µM [6, 11]: 100% | IC50 [7]: 5.8 to 39.7 mM | IC50 [8]: 8.97 to 30.9 mM | IC50 ([9]; Streptococcus agalactiae): 57.5 mM | survival of Vibrio-challenged Artemia [10]: 10%

CCCCC(=O)O [valerate]
IC50 [8]: 0.84 to 11.1 mM | MIC [8]: 62.4 to 77.9 mM | IC50 [9]: 30.2 mM | survival of Vibrio-challenged Artemia [10]: 10%
